The record followed here is patent US20140120060A1, “TREATMENT OF RHEUMATOID ARTHRITIS AND ASTHMA USING PI3 KINASE INHIBITORS” (INFINITY PHARMACEUTICALS, INC., priority 2012, published 2014).

Structures are written as SMILES.

The test system of one assay is B cell. The experiment in a line: B cell proliferation. It is filed as cell-based.
Conditions: not given
For the molecule `Cc1cccc2cc(C(C)Nc3ncnc4[nH]cnc34)n(CCN3CCCC3)c(=O)c12` (stereo not drawn) [Compound 233], the EC50 was below 100 nM.
The same measure, in the same setting: then `Cc1cccc2cc(C(C)Nc3ncnc4[nH]cnc34)n(C3CCOCC3)c(=O)c12` (stereo not drawn) [Compound 234], with below 100 nM.
Same read-out and setting: with `Cc1cccc2cc(Cn3nc(-c4ccc5nc(N)oc5c4)c4c(N)ncnc43)n(-c3ccccc3)c(=O)c12` [Compound 235] the figure was below 10000 nM.
Same read-out and setting: with `CC(Nc1ncnc2[nH]cnc12)c1cc2cccc(Cl)c2c(=O)n1-c1ccccc1` (stereo not drawn) [Compound 237] the figure was below 100 nM; with `Cc1ccccc1-n1c(Cn2nc(-c3ccc4nc(N)oc4c3)c3c(N)ncnc32)cc2cccc(C)c2c1=O` [Compound 243], below 1000 nM.
On to `Cc1cccc2cc([C@H](C)Nc3nc(Cl)nc4[nH]cnc34)n(-c3ccccc3)c(=O)c12` [Compound 244], for which the EC50 was below 100 nM.
Consider `Cc1cccc2cc([C@H](C)Nc3nc(F)nc4[nH]cnc34)n(-c3ccccc3)c(=O)c12` [Compound 245], for which the EC50 was below 100 nM.
Regarding `Cc1cccc2cc([C@H](C)Nc3ncnc4[nH]ccc34)n(-c3ccccc3)c(=O)c12` [Compound 247], the EC50 is below 100 nM.
`Cc1cccc2cc([C@H](C)Nc3nc(Cl)ncc3Cl)n(-c3ccccc3)c(=O)c12` [Compound 248] yielded an EC50 below 100 nM.
Still for that read-out and setting: with `Cc1cccc2cc([C@H](C)Nc3nc(N)ncc3Cl)n(-c3ccccc3)c(=O)c12` [Compound 249] the figure was below 100 nM; with `CC(=O)Nc1nc2cc(-c3nn(Cc4cc5cccc(C)c5c(=O)n4-c4ccccc4C)c4ncnc(N)c34)ccc2o1` [Compound 251], below 100 nM; with `Cc1cccc2cc(Cn3nc(-c4ccc5nc(N)sc5c4)c4c(N)ncnc43)n(-c3ccccc3)c(=O)c12` [Compound 252], below 100 nM.
Same read-out and setting: then `CC(=O)Nc1nc2cc(-c3nn(Cc4cc5cccc(C)c5c(=O)n4-c4ccccc4)c4ncnc(N)c34)ccc2o1` [Compound 253], with below 100 nM; and `Cc1cccc2cc([C@H](C)Nc3ncnc4[nH]cc(F)c34)n(-c3ccccc3)c(=O)c12` [Compound 254], with below 100 nM.
The same measure, in the same setting: then `Cc1cccc2cc([C@H](C)Nc3ncnc4[nH]nc(C#N)c34)n(-c3ccccc3)c(=O)c12` [Compound 255], with below 100 nM; and `Cc1cccc2cc([C@H](C)Nc3ncnc4[nH]nc(C(N)=O)c34)n(-c3ccccc3)c(=O)c12` [Compound 256], with below 100 nM.
For the molecule `Cc1cccc2cc([C@H](C)Nc3ncnc4[nH]cc(Br)c34)n(-c3ccccc3)c(=O)c12` [Compound 257], the EC50 is below 100 nM.
Still for that read-out and setting: then `C[C@H](Nc1ncnc2[nH]cnc12)c1cc2cccc(Cl)c2c(=O)n1C1CC1` [Compound 270], with below 100 nM; and `Cc1ccccc1-n1c(Cn2nc(-c3ccc4sc(N)nc4c3)c3c(N)ncnc32)cc2cccc(C)c2c1=O` [Compound 276], with below 100 nM.
On the same count and under the same terms, with `Cc1cccc2cc(Cn3nc(-c4ccc5sc(N)nc5c4)c4c(N)ncnc43)n(-c3ccccc3)c(=O)c12` [Compound 277] the figure was below 100 nM; with `Cc1cccc2cc([C@H](C)Nc3ncnc4[nH]cc(F)c34)n(C3CC3)c(=O)c12` [Compound 278], below 100 nM.
On the same count and under the same terms, with `Cc1cccc2cc([C@H](C)Nc3ncnc4[nH]cc(C#N)c34)n(C3CC3)c(=O)c12` [Compound 289] the figure was below 100 nM.
With `Cc1cccc2cc([C@H](C)Nc3ncnc4[nH]cnc34)n(-c3cccc(F)c3)c(=O)c12` [Compound 290], the EC50 was below 100 nM.
Still for that read-out and setting: with `CCc1nn(Cc2cc3cccc(C)c3c(=O)n2-c2ccccc2C)c2ncnc(N)c12` [Compound 294] the figure was below 1000 nM.
On the same count and under the same terms, with `Cc1ccccc1-n1c(Cn2nc(-c3ccc4nc(N)[nH]c4c3)c3c(N)ncnc32)cc2cccc(C)c2c1=O` [Compound 295] the figure was below 100 nM; with `CC(=O)Nc1nc2ccc(-c3nn(Cc4cc5cccc(C)c5c(=O)n4-c4ccccc4C)c4ncnc(N)c34)cc2[nH]1` [Compound 296], below 100 nM; with `Cc1ccccc1-n1c(Cn2nc(C(N)=O)c3c(N)ncnc32)cc2cccc(C)c2c1=O` [Compound 298], below 100 nM.
`Cc1ccccc1-n1c(Cn2nc(C(=O)NO)c3c(N)ncnc32)cc2cccc(C)c2c1=O` [Compound 300] showed an EC50 below 100 nM.
Still for that read-out and setting: then `C=Cc1nn(Cc2cc3cccc(C)c3c(=O)n2-c2ccccc2)c2ncnc(N)c12` [Compound 301], with below 100 nM; and `Cc1cccc2cc(Cn3nc(-c4ccc5nc(N)[nH]c5c4)c4c(N)ncnc43)n(-c3ccccc3)c(=O)c12` [Compound 302], with below 100 nM; and `CCc1nn(Cc2cc3cccc(C)c3c(=O)n2-c2ccccc2)c2ncnc(N)c12` [Compound 303], with below 100 nM.
Same read-out and setting: with `Cc1ccccc1-n1c(Cn2nc(C(F)F)c3c(N)ncnc32)cc2cccc(C)c2c1=O` [Compound 306] the figure was below 100 nM; with `Cc1cccc2cc(Cn3nc(C(F)F)c4c(N)ncnc43)n(-c3ccccc3)c(=O)c12` [Compound 308], below 100 nM.
On to `Cc1ccccc1-n1c(Cn2nc(CF)c3c(N)ncnc32)cc2cccc(C)c2c1=O` [Compound 310], for which the EC50 was below 100 nM.
Still for that read-out and setting: with `Cc1cccc2cc(Cn3nc(CF)c4c(N)ncnc43)n(-c3ccccc3)c(=O)c12` [Compound 311] the figure was below 100 nM; with `Cc1ccccc1-n1c(Cn2nc(CC#N)c3c(N)ncnc32)cc2cccc(C)c2c1=O` [Compound 312], below 1000 nM.

In the next assay the test system is developing adjuvant arthritis. The experiment in a line: Freund's complete adjuvant induced rat model of arthritis. The class given is in vivo. As to conditions: reference treatment, dose not stated. An excerpt:
Freund's complete adjuvant induced arthritis in the rat is an experimental model of polyarthritis that has been widely used for nonclinical testing of numerous anti-arthritic agents that are either under nonclinical or clinical investigation, or are currently used as therapeutics in this disease.
As for `C[C@@H]1C[C@H]2[C@@H]3CCC4=CC(=O)C=C[C@]4(C)[C@@]3(F)[C@@H](O)C[C@]2(C)[C@@]1(O)C(=O)CO` [dexamethasone, reference compound], the “inhibition of ankle diameter AUC (d7-14) increase” value amounted to 71%, the “reduction of histopathologic bone resorption” value came out at 97% and the “reduction of histopathologic inflammation” value is 56%.
